“And” between values parts separate entries of the source, which are not always exact repeats. Equal entries are not always repeated.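 Protocol summary: plate cells (96-well), add compound at 5 concentrations, incubate 48 h, interpolate endpoints linearly. GI50 is the concentration that inhibits growth by half. TGI: total growth inhibition.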
Tests used:
Assay in all cases: NCI anticancer screen, dose series, 48 h
HOP-18 NSCLC = test system: HOP-18 NSCLC
KM20L2 colon = test system: KM20L2 colon
XF 498 CNS = test system: XF 498 CNS
RXF-631 renal = test system: RXF-631 renal
HS 578T breast = test system: HS 578T breast
NCI/ADR-RES ovarian = test system: NCI/ADR-RES ovarian
MDA-N = test system: MDA-N
BT-549 breast = test system: BT-549 breast
MCF7 breast = test system: MCF7 breast

C/C(=N\NS(=O)(=O)c1ccc(C)cc1)c1ccc[n+]([O-])n1
TGI (HOP-18 NSCLC): > 100 µM | TGI (KM20L2 colon): > 100 µM | TGI (XF 498 CNS): > 100 µM

S=C(Nc1ccccc1)Nc1[nH]c(=S)sc1-c1nc2ccccc2[nH]1
TGI (HOP-18 NSCLC): > 100 µM | TGI (RXF-631 renal): > 100 µM

CCC1OCCN1C(C)C (configuration not stated)
TGI (KM20L2 colon): > 100 µM

CCOP(=O)(OCC)/C(C#N)=C\c1cccc2ccccc12
TGI (HS 578T breast): 57.7 µM | TGI (NCI/ADR-RES ovarian): > 100 µM | TGI (MDA-N): > 100 µM | TGI (KM20L2 colon): > 100 µM | TGI (BT-549 breast): > 100 µM | TGI (MCF7 breast): > 100 µM

Cc1nnc2n1N=C(CC(=O)c1ccc(O)cc1O)CN2N
TGI (RXF-631 renal): > 100 µM | TGI (KM20L2 colon): > 100 µM

CC1=NN(C(=O)CC(=O)Nc2cccc(Cl)c2)C(=O)C1N=Nc1ccc(S(N)(=O)=O)cc1 (configuration not stated)
TGI (HOP-18 NSCLC): > 100 µM | TGI (KM20L2 colon): > 100 µM | TGI (XF 498 CNS): > 100 µM

O=C(O)c1cc(Cl)cc(NC(=O)C(Cl)Cl)c1Cl
TGI (HOP-18 NSCLC): > 100 µM | TGI (RXF-631 renal): > 100 µM | TGI (KM20L2 colon): > 100 µM | TGI (XF 498 CNS): > 100 µM

Cn1c(=O)c2c3oc(=O)cc(O)c3c(=O)n3c4ccccc4n(c1=O)c23
TGI (HOP-18 NSCLC): > 100 µM | TGI (RXF-631 renal): > 100 µM | TGI (XF 498 CNS): 68 µM

CC1=CC2=C(C)C3(CC3)[C@@](C)(O)C(=O)C2=C1
TGI (HOP-18 NSCLC): 0.528 µM | TGI (KM20L2 colon): 0.498 µM | TGI (XF 498 CNS): 0.341 µM

Oc1cccc(-c2nc3ccccc3s2)c1
TGI (HS 578T breast): 44.4 µM | TGI (NCI/ADR-RES ovarian): 68.8 µM | TGI (MDA-N): 98.7 µM | TGI (BT-549 breast): > 100 µM | TGI (MCF7 breast): > 100 µM

COC(=O)c1c(C)oc2ccc(OC(C)=O)cc12
TGI (KM20L2 colon): > 100 µM

O=C(CCCCCCCCCCc1ccccc1)c1c(O)cccc1O
TGI (HOP-18 NSCLC): 67.5 µM | TGI (RXF-631 renal): 85.4 µM | TGI (KM20L2 colon): > 100 µM | TGI (XF 498 CNS): 40.1 µM

COc1cc2c3c(c1OC)-c1ccccc1C(C(OC(C)=O)c1ccccc1)C3N(C)CC2 (configuration not stated)
TGI (HOP-18 NSCLC): > 100 µM | TGI (KM20L2 colon): > 100 µM

COC(=O)/C(=N\NC(=O)c1ccccc1O)C(C#N)c1ccc(Cl)cc1 (configuration not stated)
TGI (HOP-18 NSCLC): > 100 µM | TGI (RXF-631 renal): > 100 µM | TGI (KM20L2 colon): > 100 µM

COc1ccc2cccc(C(=N)c3ccc(C)c4c3CCC4)c2c1
TGI (HOP-18 NSCLC): 15.5 µM | TGI (RXF-631 renal): 4.37 µM | TGI (KM20L2 colon): 19.3 µM

CC(=O)NC1C(OCc2ccccc2)OC(COC(=O)CCCCCCCCCCNC(=O)c2cccc3c(=O)c4ccccc4[nH]c23)C(O)C1OC(C)C(=O)NC(C)C(=O)NC(CCC(N)=O)C(N)=O (configuration not stated)
TGI (HOP-18 NSCLC): > 100 µM | TGI (RXF-631 renal): 43.8 µM | TGI (KM20L2 colon): > 100 µM | TGI (XF 498 CNS): > 100 µM

CCOC(=O)CCC1(C(=O)OC)CCCC1=O (configuration not stated)
TGI (HOP-18 NSCLC): > 100 µM | TGI (KM20L2 colon): > 100 µM | TGI (XF 498 CNS): > 100 µM

CC(=O)[CH-]C(=O)c1ccccc1.CC(=O)[CH-]C(=O)c1ccccc1.[O]=[U+2]=[O]
GI50 (KM20L2 colon): 37.1 µM | TGI (KM20L2 colon): > 100 µM

O=C1OCC(C(=O)c2cccc(O)c2)C1=O (configuration not stated)
TGI (HOP-18 NSCLC): > 100 µM | TGI (RXF-631 renal): > 100 µM | TGI (KM20L2 colon): > 100 µM

N#Cc1c2c(c(N=[N+]=[N-])n3c1nc1ccccc13)CCCC2
TGI (KM20L2 colon): 4.6 µM | TGI (XF 498 CNS): 3.13 µM

CC(C)c1ccc(/C=C(\NC(=O)c2ccccc2)c2nc3ccccc3[nH]2)cc1
TGI (HOP-18 NSCLC): > 100 µM | TGI (RXF-631 renal): > 100 µM | TGI (KM20L2 colon): > 100 µM | TGI (XF 498 CNS): > 100 µM

CC(C)OP(=O)(CP(=O)(OC(C)C)OC(C)C)OC(C)C.[CH3][Sn]([Br])([Br])[Br]
GI50 (HOP-18 NSCLC): > 100000 nM | TGI (HOP-18 NSCLC): > 100 µM | GI50 (RXF-631 renal): > 100000 nM | TGI (RXF-631 renal): > 100 µM | GI50 (KM20L2 colon): > 100 µM | TGI (KM20L2 colon): > 100 µM

Cc1ccc(NC(=O)CCC(=O)C2CC(=O)CC/C2=N\NC(=O)c2cc3ccccc3cc2O)cc1C (configuration not stated)
TGI (HOP-18 NSCLC): > 100 µM | TGI (RXF-631 renal): > 100 µM | TGI (KM20L2 colon): 87.9 µM | TGI (XF 498 CNS): 99 µM

COc1ccc([Se]c2ccc(OC)cc2OC)c(OC)c1
TGI (HOP-18 NSCLC): 86 µM | TGI (RXF-631 renal): > 100 µM | TGI (KM20L2 colon): 31.6 µM | TGI (XF 498 CNS): > 100 µM

O=C(Cc1nc2ccc(C(=O)c3ccccc3)cc2[nH]c1=O)C(=O)Nc1ccccc1[N+](=O)[O-]
TGI (HS 578T breast): > 100 µM | TGI (NCI/ADR-RES ovarian): > 100 µM | TGI (MDA-N): > 100 µM | TGI (BT-549 breast): > 100 µM | TGI (MCF7 breast): > 100 µM

c1ccc(SCCCC(Sc2ccccc2)Sc2ccccc2)cc1
TGI (KM20L2 colon): > 100 µM | TGI (XF 498 CNS): > 100 µM

CC1OC(=O)N(CCCC=C2SCCCS2)C1=O (configuration not stated)
TGI (HOP-18 NSCLC): > 100 µM | TGI (KM20L2 colon): > 100 µM | TGI (XF 498 CNS): > 100 µM

CC1=C(C#N)C(N)=C2C(C)=C(C#N)C(N)=C12
TGI (KM20L2 colon): > 100 µM | TGI (XF 498 CNS): > 100 µM

c1ccc2c(c1)CCCc1cc3ccccc3nc1-2
TGI (HOP-18 NSCLC): > 100 µM | TGI (KM20L2 colon): > 100 µM | TGI (XF 498 CNS): > 100 µM

COC(=O)C12CC(C3CC31)C1CC12 (configuration not stated)
TGI (HOP-18 NSCLC): > 100 µM | TGI (RXF-631 renal): > 100 µM | TGI (KM20L2 colon): > 100 µM

CN1CCCC1c1cccnc1.O=C(O)c1ccccc1O.O=C([O-])c1ccccc1[OH2+].O=C([O-])c1ccccc1[OH2+].O=C([O-])c1ccccc1[OH2+].[Mn+2] (configuration not stated)
GI50 (HS 578T breast): 2430 nM | TGI (HS 578T breast): > 100 µM | GI50 (NCI/ADR-RES ovarian): > 100 µM | TGI (NCI/ADR-RES ovarian): > 100 µM | GI50 (MDA-N): > 100 µM | TGI (MDA-N): > 100 µM | GI50 (BT-549 breast): 39.7 µM | TGI (BT-549 breast): > 100 µM | GI50 (MCF7 breast): 50 µM | TGI (MCF7 breast): > 100 µM

COC(=O)/C(C#N)=C1\N=NNN1CCCN1CCOCC1
TGI (HOP-18 NSCLC): > 100 µM

CC1(CC(=O)O)OC2CCCCCC2O1 (configuration not stated) (tested in a mixture with another compound)
TGI (HS 578T breast): > 100 µM | TGI (NCI/ADR-RES ovarian): > 100 µM | TGI (MDA-N): > 100 µM | TGI (BT-549 breast): > 100 µM | TGI (MCF7 breast): > 100 µM

Brc1ccc2c(c1)C1(c3cc(Br)ccc3-2)c2cc(Br)ccc2-c2ccc(Br)cc21
TGI (HOP-18 NSCLC): > 100 µM | TGI (RXF-631 renal): > 100 µM | TGI (KM20L2 colon): > 100 µM | TGI (XF 498 CNS): > 100 µM

NC(Cc1nn[nH]n1)C(=O)O (configuration not stated)
TGI (HS 578T breast): > 100 µM | TGI (NCI/ADR-RES ovarian): > 100 µM | TGI (MDA-N): > 100 µM | TGI (BT-549 breast): > 100 µM | TGI (MCF7 breast): > 100 µM

O=c1c2ccccc2nc(-c2ccccc2)n1NCC1(O)OCC(O)C(O)C1O (configuration not stated)
TGI (HOP-18 NSCLC): > 100 µM | TGI (KM20L2 colon): > 100 µM

O=C1CCC2(CCC(=O)NC2=O)C(=O)N1
TGI (KM20L2 colon): > 100 µM | TGI (XF 498 CNS): > 100 µM

COC(=O)C(CC=O)C(=O)C(=O)Nc1cccc(C(F)(F)F)c1 (configuration not stated)
TGI (HOP-18 NSCLC): > 100 µM | TGI (RXF-631 renal): > 100 µM | TGI (KM20L2 colon): > 100 µM | TGI (XF 498 CNS): > 100 µM

O=C1c2c(O)cccc2C(C(=O)CCCCC(=O)C2c3cccc(O)c3C(=O)c3c(O)cccc32)c2cccc(O)c21
TGI (HS 578T breast): 0.951 µM | GI50 (HOP-18 NSCLC): 996 nM | TGI (HOP-18 NSCLC): 1.79 µM and 1.88 µM | TGI (MDA-N): 3.77 µM | GI50 (RXF-631 renal): 1360 nM | TGI (RXF-631 renal): 3.61 µM and 2.81 µM | GI50 (KM20L2 colon): 1.58 µM | TGI (KM20L2 colon): 4.39 µM and 5.46 µM | TGI (BT-549 breast): 1.96 µM | TGI (MCF7 breast): 6.18 µM | TGI (XF 498 CNS): 1.18 µM

Cc1cc(N(CCC#N)S(=O)(=O)c2ccccc2)ccc1C=O
TGI (HOP-18 NSCLC): > 100 µM | TGI (RXF-631 renal): > 100 µM | TGI (KM20L2 colon): > 100 µM

From PubChem BioAssay (NCI)
